According to article PMC7216583 (Parasites & Vectors, 2020):
Structures can show the parent of a compound that is named as a salt. Where two headings read alike, the source gives them in different places.

Legend:
HSP90α = settings: read-out: IC50 HSP90α; ref library vendor description; cited from earlier work
[1] = test system: Toxoplasma gondii RH-2F tachyzoites; experiment: microbe, parasite or virus in culture; settings: 72 h
P-glycoprotein = settings: cited from earlier work
human muscarinic AChR M1 = molecular target: human muscarinic AChR M1; design: method as in vendor brief description; settings: ref vendor brief description; cited from earlier work
human muscarinic AChR M2 = molecular target: human muscarinic AChR M2; design: method as in vendor brief description; settings: ref vendor brief description; cited from earlier work
human muscarinic AChR M3 = molecular target: human muscarinic AChR M3; design: method as in vendor brief description; settings: ref vendor brief description; cited from earlier work
human muscarinic AChR M4 = molecular target: human muscarinic AChR M4; design: method as in vendor brief description; settings: ref vendor brief description; cited from earlier work
human muscarinic AChR M5 = molecular target: human muscarinic AChR M5; design: method as in vendor brief description; settings: ref vendor brief description; cited from earlier work
PDE5 = settings: read-out: IC50 PDE5; ref vendor brief description; cited from earlier work
[2] = molecular target: angiotensin II type 1 (AT1) receptor; design: method as in vendor brief description; settings: ref vendor brief description; cited from earlier work
GSK-3α = test system: GSK-3α; design: method as in vendor brief description; settings: ref vendor brief description; cited from earlier work
in vitro = settings: human
VEGFR-2 = test system: VEGFR-2; design: method as in vendor brief description; settings: ref vendor brief description; cited from earlier work
Ret = test system: Ret; design: method as in vendor brief description; settings: ref vendor brief description; cited from earlier work
Kit = test system: Kit; design: method as in vendor brief description; settings: ref vendor brief description; cited from earlier work
Flt-1 = test system: Flt-1; design: method as in vendor brief description; settings: ref vendor brief description; cited from earlier work
Flt-4 = test system: Flt-4; design: method as in vendor brief description; settings: ref vendor brief description; cited from earlier work
AXL = test system: AXL; design: method as in vendor brief description; settings: ref vendor brief description; cited from earlier work
tyrosinase = molecular target: tyrosinase; design: method as in vendor brief description; settings: ref vendor brief description; cited from earlier work
CETP = test system: CETP; design: method as in vendor brief description; settings: ref vendor brief description; cited from earlier work
S1P = test system: S1P; design: method as in vendor brief description; settings: ref vendor brief description; cited from earlier work
[3] = molecular target: H3K27 histone demethylase JMJD3/UTX; design: method as in vendor brief description; settings: ref vendor brief description; cited from earlier work
PI3Kγ = test system: PI3Kγ; design: method as in vendor brief description; settings: ref vendor brief description; cited from earlier work
β-adrenoceptor = molecular target: β-adrenoceptor; design: method as in vendor brief description; settings: ref vendor brief description; cited from earlier work
recombinant human mGlu2 = molecular target: recombinant human mGlu2; design: method as in vendor brief description; settings: ref vendor brief description; cited from earlier work
[4] = molecular target: recombinant human mGlu3 receptors; design: method as in vendor brief description; settings: ref vendor brief description; cited from earlier work
[5] = molecular target: rat neurons expressing native mGlu2/3 receptors; design: method as in vendor brief description; settings: ref vendor brief description; cited from earlier work
5-HT7 receptor = molecular target: 5-HT7 receptor; design: method as in vendor brief description; settings: ref vendor brief description; cited from earlier work
dopamine D2 = test system: dopamine D2; design: method as in vendor brief description; settings: ref vendor brief description; cited from earlier work
5-HT2A = test system: 5-HT2A; design: method as in vendor brief description; settings: ref vendor brief description; cited from earlier work
5-HT1A = test system: 5-HT1A; design: method as in vendor brief description; settings: ref vendor brief description; cited from earlier work
noradrenaline α2C = test system: noradrenaline α2C; design: method as in vendor brief description; settings: ref vendor brief description; cited from earlier work
β3-adrenoceptor = test system: β3-adrenoceptor; design: method as in vendor brief description; settings: ref vendor brief description; cited from earlier work
20S proteasome β5 = test system: 20S proteasome β5; design: method as in vendor brief description; settings: read-out: IC50 CT-L activity of 20S proteasome β5; ref vendor brief description; cited from earlier work
LMP7 = test system: LMP7; design: method as in vendor brief description; settings: read-out: IC50 CT-L activity of 20S proteasome LMP7; ref vendor brief description; cited from earlier work
CYP3A4 (P450) = test system: CYP3A4 (P450); design: method as in vendor brief description; settings: ref vendor brief description; cited from earlier work
nonsense mutation = settings: ref vendor brief description; read-out: EC50 nonsense mutation inhibition; cited from earlier work
[6] = molecular target: N-methyl-D-aspartate (NMDA) receptor; design: method as in vendor brief description; settings: ref vendor brief description; cited from earlier work
sodium channel = test system: sodium channel; design: method as in vendor brief description; settings: ref vendor brief description; cited from earlier work
nAChR = test system: nAChR; design: method as in vendor brief description; settings: ref vendor brief description; cited from earlier work
5-HT3 = molecular target: 5-HT3; design: method as in vendor brief description; settings: ref vendor brief description; cited from earlier work
Factor Xa = test system: Factor Xa; design: method as in vendor brief description; settings: ref vendor brief description; cited from earlier work
[7] = molecular target: histamine 1 (H1) receptor; design: method as in vendor brief description; settings: ref vendor brief description; cited from earlier work
PAFR = molecular target: PAFR; design: method as in vendor brief description; settings: ref vendor brief description; cited from earlier work
[8] = test system: Toxoplasma gondii RH-2F tachyzoites
myeloperoxidase = settings: read-out: IC50 myeloperoxidase; ref vendor brief description; cited from earlier work
GSK-3β = test system: GSK-3β; design: method as in vendor brief description; settings: ref vendor brief description; cited from earlier work
β2-adrenergic receptor = molecular target: β2-adrenergic receptor; design: method as in vendor brief description; settings: ref vendor brief description; cited from earlier work
CYP2C9 = test system: CYP2C9; design: method as in vendor brief description; settings: ref vendor brief description; cited from earlier work
4-hydroxylation = test system: 4-hydroxylation; design: method as in vendor brief description; settings: ref vendor brief description; cited from earlier work
class I PI3K = test system: class I PI3K; design: method as in library vendor description; settings: ref library vendor description; read-out: IC50 pan-class I PI3K; cited from earlier work
[9] = read-out: Parasite inhibition (%) mean, preliminary screen, mean
[10] = read-out: Parasite inhibition (%) mean, preliminary screen of compound library, mean

Compound: CCNC(=O)c1noc(-c2cc(C(C)C)c(O)cc2O)c1-c1ccc(CN2CCOCC2)cc1 [AUY922 (NVP-AUY922)]
- inhibition of growth at 5 µM [1, 9]: 8.2%

Compound: COC1CCN(C(=O)c2cc(Cc3n[nH]c(=O)c4ccccc34)ccc2F)CC1 [AZD2461]
- P-glycoprotein substrate property (P-glycoprotein): AZD2461 is a poor P-glycoprotein substrate with lower affinity for Pgp than does olaparib.
- inhibition of growth at 5 µM [1, 10]: 11%

Compound: O=C(O[C@H]1C[N+]2(CCCOc3ccccc3)CCC1CC2)C(O)(c1cccs1)c1cccs1 [Aclidinium Bromide]
- Ki (human muscarinic AChR M1): 0.1 nM
- Ki (human muscarinic AChR M2): 0.14 nM
- Ki (human muscarinic AChR M3): 0.14 nM
- Ki (human muscarinic AChR M4): 0.21 nM
- Ki (human muscarinic AChR M5): 0.16 nM
- inhibition of growth at 5 µM ([1]; read-out: Parasite inhibition (%) mean): 1.8%

Compound: COc1ccc(CN=c2[nH]c(N3CCC[C@H]3CO)ncc2C(=O)NCc2ncccn2)cc1Cl [Avanafil]
- IC50 (PDE5): 1 nM
- inhibition of growth at 5 µM [1, 10]: 7.5%

Compound: CCOc1nc2cccc(C(=O)O)c2n1Cc1ccc(-c2ccccc2-c2nc(=O)o[nH]2)cc1 [Azilsartan (TAK-536)]
- IC50 [2]: 2.6 nM
- inhibition of growth at 5 µM [1, 10]: 4.6%

Compound: Cc1c[nH]c(-c2cnc(NCCNc3ccc(C#N)cn3)nc2-c2ccc(Cl)cc2Cl)n1 [CHIR-99021 (CT99021) HCl]
- IC50 (GSK-3α): 10 nM
- inhibition of growth at 5 µM [1, 10]: 43.9%

Compound: COc1cc2nccc(Oc3ccc(NC(=O)C4(C(=O)Nc5ccc(F)cc5)CC4)cc3)c2cc1OC [Cabozantinib malate]
- viability at 72 h (in vitro; Host viability (%) mean): 43.1%
- IC50 (VEGFR-2): 0.035 nM
- IC50 (Flt-1): 12 nM
- IC50 (Flt-4): 6 nM
- inhibition of growth at 5 µM [1, 10]: 80.4%

Compound: Oc1ccc(OC2CCCCO2)cc1 (centres unmarked) [Deoxyarbutin]
- IC50 (tyrosinase): 50 nM
- inhibition of growth at 5 µM [1, 10]: 33.4%

Compound: Cc1cc(C)c2c(c1)[C@@H](N(Cc1cc(C(F)(F)F)cc(C(F)(F)F)c1)c1nnn(C)n1)CCCN2C[C@H]1CC[C@H](C(=O)O)CC1 [Evacetrapib (LY2484595)]
- IC50 (CETP): 5.5 nM
- inhibition of growth at 5 µM [1, 10]: 22.6%

Compound: CCCCCCCCc1ccc(CCC(N)(CO)CO)cc1 [Fingolimod (FTY720)]
- IC50 (S1P): 0.033 nM
- inhibition of growth at 5 µM [1, 10]: 10%

Compound: O=C(O)CCNc1cc(N2CCc3ccccc3CC2)nc(-c2ccccn2)n1 [GSK J1]
- IC50 [3]: 60 nM

Compound: C[C@H](Nc1ncnc2[nH]cnc12)c1cc2cccc(Cl)c2c(=O)n1-c1ccccc1 [IPI-145 (INK1197)]
- IC50 (PI3Kγ): 50 nM
- inhibition of growth at 5 µM [1, 10]: 1.9%

Compound: CCc1cc2c(cc1CC)CC(NC[C@H](O)c1ccc(O)c3[nH]c(=O)ccc13)C2 [Indacaterol Maleate]
- pKi β-adrenoceptor (β-adrenoceptor): Indacaterol is an ultra-long-acting β-adrenoceptor agonist with pKi of 7.36.
- inhibition of growth at 5 µM [1, 10]: -8.9%

Compound: N[C@@]1(C(=O)O)CS(=O)(=O)[C@H]2[C@H](C(=O)O)[C@H]21 [LY2140023 (LY404039)]
- Ki (recombinant human mGlu2): 149 nM
- Ki [4]: 92 nM
- Ki [5]: 88 nM
- inhibition of growth at 5 µM [1, 10]: 2.9%

Compound: O=C1[C@@H]2[C@H]3CC[C@H](C3)[C@@H]2C(=O)N1C[C@@H]1CCCC[C@H]1CN1CCN(c2nsc3ccccc23)CC1 [Lurasidone HCl, reference compound]
- viability (in vitro): 86.9%
- viability at 5 µM (in vitro): 86.9 ± 1.7%
- IC50 (5-HT7 receptor): 0.495 nM
- IC50 (5-HT2A): 2.03 nM
- IC50 (5-HT1A): 6.75 nM
- IC50 (noradrenaline α2C): 10.8 nM
- inhibition at 5 µM ([1]; read-out: Parasite inhibition (%) Mean ± SD): 80.4 ± 1.5%

Compound: Nc1nc(CC(=O)Nc2ccc(CCNC[C@H](O)c3ccccc3)cc2)cs1 [Mirabegron (YM178)]
- EC50 (β3-adrenoceptor): 22.4 nM
- inhibition of growth at 5 µM [1, 10]: 3.8%

Compound: COC[C@H](NC(=O)c1cnc(C)s1)C(=O)N[C@@H](COC)C(=O)N[C@@H](Cc1ccccc1)C(=O)C1(C)CO1 (some centres unmarked) [Oprozomib (ONX 0912)]
- IC50 (20S proteasome β5): 36 nM
- IC50 (LMP7): 82 nM
- inhibition of growth at 5 µM [1, 10]: 9%

Compound: Cc1ccc(-c2c(-c3nn(C)c4ncnc(N5CC[C@H](N6CCCCC6)C5)c34)cnn2C)cc1 [PF-4981517]
- IC50 (CYP3A4 (P450)): 30 nM
- inhibition of growth at 5 µM [1, 10]: -8.9%

Compound: O=C(O)c1cccc(-c2noc(-c3ccccc3F)n2)c1 [PTC124 (Ataluren)]
- EC50 (nonsense mutation): ~100 nM
- inhibition of growth at 5 µM [1, 10]: -0.1%

Compound: CCN(CC)CCOC(=O)c1ccc(N)cc1 [Procaine (Novocaine) HCl]
- IC50 [6]: 296000 nM
- IC50 (sodium channel): 60000 nM
- IC50 (nAChR): 45500 nM
- Kd (5-HT3): 1700 nM
- inhibition of growth at 5 µM [1, 10]: 3.7%

Compound: O=C(NCC1CN(c2ccc(N3CCOCC3=O)cc2)C(=O)O1)c1ccc(Cl)s1 (centres unmarked) [Rivaroxaban (Xarelto)]
- inhibition of growth at 5 µM [1, 10]: 0.4%

Compound: Cc1cncc(CN2CCC(=C3c4ccc(Cl)cc4CCc4cccnc43)CC2)c1 [Rupatadine Fumarate]
- Ki [7]: 102 nM
- Ki (PAFR): 550 nM
- inhibition of growth at 5 µM [1, 10]: 0.2%

Compound: O=N[O-].[Na+] [Sodium Nitrite]
- Parasite inhibition (%) mean [8]: 49.5%
- IC50 (myeloperoxidase): 1300 nM

Compound: Cn1sc(=O)n(Cc2ccccc2)c1=O [TDZD-8]
- IC50 (GSK-3β): 2000 nM
- inhibition of growth at 5 µM [1, 10]: 12.8%

Compound: CC(C)(C)NCC(O)c1cc(O)cc(O)c1 (centres unmarked) [Terbutaline Sulfate]
- IC50 (β2-adrenergic receptor): 53 nM
- inhibition of growth at 5 µM [1, 10]: 40.1%

Compound: CCCSc1nc(N[C@@H]2C[C@H]2c2ccc(F)c(F)c2)c2nnn([C@@H]3C[C@H](OCCO)[C@@H](O)[C@H]3O)c2n1 [Ticagrelor]
- IC50 (CYP2C9): 10500 nM
- inhibition of growth at 5 µM [1, 10]: 4.7%

Compound: FC(F)c1nc2ccccc2n1-c1nc(N2CCOCC2)nc(N2CCOCC2)n1 [ZSTK474]
- IC50 (class I PI3K): 37 nM
- inhibition of growth at 5 µM [1, 9]: 49.8%
